Test results as given in patent US12485110B2, “Use of ergothioneine for extending lifespan or improving healthspan” (NANJING NUTRABUILDING BIO-TECH CO., LTD., priority 2022, dated 2025).

What was measured:
[1] = system: C. elegans; experiment: Differential gene expression by mRNA sequencing (RNA-Seq); format: in vivo; conditions: for Number of genes differentially expressed above threshold: 5 mM vs control
Method: More than 150 day-1 adult worms per replicate were harvested, cleaned by filtration, and frozen at −80° C. in Trizol. To extract RNA, samples were thawed, vigorously vortexed, and processed using the Direct-zol RNA Miniprep Kit (Zymo Research). All samples exceeded our threshold for RNA quantity and quality.
RNA samples were submitted to Novogene Co. Ltd and subjected to more stringent QC, being tested on a Qubit for concentration and run on an agarose gel and on the Agilent 2100 to assess RNA quality and integrity.
The total RNA is then enriched for poly-mRNA using oligo(dT) paramagnetic beads. DNA libraries were then constructed from this input mRNA using the NEB Next Ultra™ II RNA Library Prep Kit. This creates a ready-to-sequence dsDNA library that retains the strand-specific information in the original mRNA. These libraries were then further tested by the Qubit for concentration and the Agilent 2100 for library size distribution and quality. In order to properly pool the libraries and load them onto sequencing lanes to ensure the correct number of reads per sample, an even more precise quantification of the library was done via qPCR, and the samples were loaded onto the NovaSeq 6000 platform for a paired-end sequencing run of 150 bp for each end (PE150). The loading concentrations were designed to obtain at least 6.0 Gb (which is the number of billion bases of raw data, determined by the number of reads multiplied by the length of each read).
Sequencing run data quality control was performed both by Novogene and again by inventors of this application. The raw data set was analyzed for: • 1. The distribution of base quality along the length of the sequencing read; • 2. The distribution of error rate along the length of the sequencing read; • 3. The distribution of A/T/G/C bases along the length of the sequencing read; • 4. The distribution of raw data filtering results based on the following three criteria: • a. Removing reads containing adapter sequence, • b. Remove reads with N>10% (where N means “base cannot be determined”), • c. Remove reads with a low quality (Qscore<=5) for 50% or more of its total bases.
To identify potential mechanisms of action through which Ergothioneine could affect aging, global gene expression was analyzed by mRNA sequencing (RNA-Seq). Both young (adult day 3) and aged (adult day 10) worms were collected from the same population of worms tested in the lifespan assay.
Differential gene expression was performed with EdgeR using […] likelihood ratio tests based on fitting linear models. The likelihood ratios were used to determine the p-values which were subsequently corrected for using the BH false discovery rate (fdr) method. Ultimately, differentially expressed genes (DEG) were defined as genes with an fdr-corrected p-value of 0.05 or lower, as well as a change in expression of at least 2-fold in a given between-group comparison. In this study, the comparison groups in Table 5 were used:
Reading Volcano Plots (log 2 fold change, Log FC): Positive values mean that the gene is more expressed in Treatment, and negative values mean the gene is more expressed in Control. The farther the dot is from the origin point on the x-axis, the greater the expression fold-change. Genes represented in green show a larger than 2-fold change in expression but are not deemed statistically significant due to replicate variability or low read count. Genes represented by red dots show greater than 2-fold change and expression that is statistically significant. The higher on the y-axis, the greater the calculated level of significance.

[2] = system: C. elegans; experiment: Longevity-focused pathway analysis of differentially expressed genes; format: in vivo
Text: This example describes identification of cellular pathways that are most likely modulated by treatment with Ergothioneine. To accomplish this, the genes differentially expressed after Ergothioneine treatment were first mapped to core established longevity pathways from the literature. Then the mapping was expanded to intersecting and supporting pathways. This placed the transcriptomic data within the context of well-characterized biological pathways, particularly several related to longevity.
Differentially expressed genes (DEGs) were mapped to known physiological pathways and then examined for coherent linkages between pathways related to longevity. These pathways were drawn from WormBase, KEGG, and other published databases and literature. For each condition, the DEGs were filtered on a more relaxed P value cutoff than the initial differential gene expression to capture broad evidence for a pathway from many small changes as opposed to highly significant individual genes of interest. For visualization, pathway genes were given a score based on the fold change weighted by the log of the P value, and this score was color mapped by magnitude and direction to produce the pathway diagram in FIG. 11.
FIG. 11 is a summary of pathway mapping to recognized aging-related pathways for Ergothioneine treatment. Colored score increments indicate degree of up-(red) or down-(blue) regulation weighted by the log of the P value such that each increment approximates one inverse log of P value. Uncolored objects indicate components that were not detected in the data. Top red indicates P value<0.0001 and so on. Solid lines indicate direct pathway connections and dashed lines indicate indirect or multi-step connections. Where lists of differentially expressed genes have been condensed into a module, the number of genes is indicated.
Starting with the canonical longevity pathways, the intersections with supporting pathways was then examined to expand the pool of evidence of whether a pathway is impacted by the treatment.

[3] = 5 mM vs vehicle control, Day 10, log 2 fold change
[4] = 5 mM vs. vehicle control, Day 3, log 2 fold change
[5] = Ergothioneine treatment, pathway mapping FIG. 11

## C[N+](C)(C)[C@@H](Cc1c[nH]c(=S)[nH]1)C(=O)[O-] [Ergo, Ergothioneine]
[1]; Day 3, cpr-1, mtl-1, argk-1, fdr P 0.05 or lower and at least 2-fold
  Number of genes differentially expressed above threshold: 3
[1]; Day 10, F55G11.4
  Number of genes differentially expressed above threshold: 1
[1]; [3]
  log FC, gene C30G12.2: 0.55
  log FC, gene F55G11.4: −1.09
  log FC, gene K07C11.7: −0.43
  log FC, gene TO5E12.6: 0.62
  log FC, gene Y39B6A. 1: −0.38
  log FC, gene Y94H6A.10: 0.43
  log FC, gene clec-150: −0.45
  log FC, gene col-19: −0.47
  log FC, gene dod-6: 0.69
  log FC, gene dod-24: −0.49
  log FC, gene folt-2: −0.49
  log FC, gene pmp-5: −0.64
  log FC, gene pmt-2: −0.38
  log FC, gene smd-1: 0.26
  log FC, gene thn-2: 0.31
[1]; [4]
  Log FC, gene C14C6.5: −0.59
  Log FC, gene F16B4.4: 0.66
  Log FC, gene F28B4.3: −0.48
  Log FC, gene F53A9.8: −0.73
  Log FC, gene F57F4.4: −0.43
  Log FC, gene Y39B6A. 1: −0.95
  Log FC, gene argk-1: 1.14
  Log FC, gene col-95: −0.56
  Log FC, gene col-124: 1.76
  Log FC, gene cpr-1: −2.10
  Log FC, gene ctsa-1.2: −0.48
  Log FC, gene ctsa-2: 0.50
  Log FC, gene folt-2: −0.54
  Log FC, gene hacd-1: −1.06
  Log FC, gene ilys-5: −0.57
  Log FC, gene irg-5: 1.39
  Log FC, gene lys-7: −0.70
  Log FC, gene mtl-1: −1.63
  Log FC, gene smd-1: −0.35
  Log FC, gene vit-4: −0.64
[2]; Ergo treatment
  superoxide dismutase (SOD-2) expression: slightly decreased expression
[2]; Ergothioneine treatment, autophagy
  cpr-1 expression: significantly downregulated
[2]; [5]
  daf-2 expression: slightly downregulated
  daf-16 expression: slight downregulation
  ife-2 (eIF4E) expression: downregulated
  mtl-1 expression: strongly downregulated
[2]; Ergothioneine treatment, stress response
  skn-1 expression: slight downregulation
